The series can be described thus: Bioavailability study, IV vs oral (Example 13). In kind it is in vivo, male CD-1 mice. Particulars: male, CD-1, mouse, plasma; oral ~30 mg/kg vs IV ~3 mg/kg. As for the experimental part: Bioavailability was determined for Compound 5-24 (ILY-V-24) as follows. Generally, the bioavailability was calculated by comparing a timecourse of the concentration of the test compound in the serum of mice after an intravenous (IV) dosing, versus the timecourse of the concentration following an oral dosing of the test compound. The IV dose was ˜3 mg/kg, the oral dose was ˜30 mg/kg.
Oral Formulation. The oral formulation was prepared as follows. To sterile flask, 90 ml of sterile Milli-Q water was added. 9 ml of PEG-400 was added (final concentration of 9%). 50 ul of Tween-80 was added (final concentration of 0.05%). 0.9 g of CMC was weighed and added (final concentration of 0.9% w/v). […]
Study Design. […] On study day 0, all the animals were weighed, dosages were calculated and the animals were dosed by oral route (PO) or (IV) as outlined below in Table 5. […]
Calculations. Bioavailability was calculated as follows. Individual doses were calculated based on an average of body weights taken on the day of dosing. Serum concentrations of test compound, as well as the actual concentration of dosing solutions, were measured using 2-dimensional Mass Spectrophotometry after Liquid Chromatography (LC MS/MS). […]

Molecules are shown by their SMILES.

As a reminder, the bioavailability is dose-corrected exposure relative to a reference, in per cent. Low values mean little systemic uptake, high ones much systemic uptake. Compound `Cc1c(C(=O)C(N)=O)c2c(OCC(=O)O)cccc2n1CCCCCCCCSCCCCCCCCSCCCCCCCCn1c(C)c(C(=O)C(N)=O)c2c(OCC(=O)O)cccc21` [ILY-V-24, 2,2′-(1,1′-(8,8′-(Octane-1,8-diylbis(sulfanediyl))bis(octane-8,1-diyl))bis(3-(2-amino-2-oxoacetyl)-2-methyl-1H-indole-4,1-diyl))bis(oxy)diacetic acid] displayed a bioavailability of 4 to 8%.

For the origin of these results see patent publication US20070135383A1, “Phospholipase inhibitors, including multi-valent phospholipase inhibitors, and use thereof, including as lumen-localized phospholipase inhibitors” (priority 2005, published 2007).
